Reference: US8940756B2, “Dihydronaphthyridines and related compounds useful as kinase inhibitors for the treatment of proliferative diseases” (Deciphera Pharmaceuticals, Inc., priority 2012, dated 2015)

Tests used:
[1] = biological target: Phospho-KIT (Tyr719) in GIST48 cells (Homo sapiens, UniProt P10721); test: GIST48 KIT Western Blot; type: cell-based; conditions: 4 hours, read-out: pKIT suppression by western blot analysi GIST48
Experimental: (§1) GIST48, GIST430, and GIST882 cells were obtained from J. Fletcher (Brigham and Women's Hospital, Boston, Mass.). GIST T1 cells were obtained from B. Rubin (Cleveland Clinic, Cleveland, Ohio) and Professor Takahiro Taguchi (Kochi Medical School, Nankoku, Kochi, Japan). […] GIST430 cells were grown in Ham's F10 medium supplemented with 15% characterized fetal bovine serum (Invitrogen, Carlsbad, Calif.), 30 mg/L bovine pituitary extract (BD Biosciences, San Jose, Calif.), 0.5% Mito+ serum extender (BD Biosciences, San Jose, Calif.), 1 unit/mL penicillin G, 1 μg/ml streptomycin, and 0.29 mg/mL L-glutamine at 37° C., 5% CO2, 95% humidity. GIST T1 cells were grown in DMEM medium supplemented with 10% characterized fetal bovine serum (Invitrogen, Carlsbad, Calif.), 1 unit/mL penicillin G, 1 ng/ml streptomycin, and 0.29 mg/mL L-glutamine at 37° C., 5% CO2, and 95% humidity. Cells were allowed to expand until reaching 70-95% confluence at which point they were subcultured or harvested for assay use.
(§2) Two hundred fifty thousand cells were added per well in a 24-well tissue-culture treated plate. Cells were then incubated overnight at 37° C., 5% CO2, 95% humidity. Medium was aspirated, cells were washed with PBS, and serum-free RPMI1640 medium was added. A serial dilution of test compound was added to plates containing cells and plates were incubated for 4 hours at 37° C., 5% CO2, 95% humidity. Cells were washed with PBS, then lysed. Cell lysates were separated by SDS-PAGE and transferred to PVDF. Phospho-KIT (Tyr719) was detected using an antibody from Cell Signaling Technology (Beverly, Mass.), ECL Plus detection reagent (GE Healthcare, Piscataway, N.J.) and a Molecular Devices Storm 840 phosphorimager in fluorescence mode. Blots were stripped and probed for total KIT using an antibody from Santa Cruz Biotech (Santa Cruz, Calif.). IC50 values were calculated using Prism software (Graphpad, San Diego, Calif.).

[2] = biological target: Phospho-KIT (Tyr719) in GIST430 cells (Homo sapiens, UniProt P10721); test: GIST430 KIT Western Blot; type: cell-based; conditions: 4 hours, read-out: pKIT suppression by western blot analysi GIST430
Sequence of Phospho-KIT (Tyr719) in GIST430 cells (P10721 with tags, fused parts or gaps DEL560-576/V654A, form open): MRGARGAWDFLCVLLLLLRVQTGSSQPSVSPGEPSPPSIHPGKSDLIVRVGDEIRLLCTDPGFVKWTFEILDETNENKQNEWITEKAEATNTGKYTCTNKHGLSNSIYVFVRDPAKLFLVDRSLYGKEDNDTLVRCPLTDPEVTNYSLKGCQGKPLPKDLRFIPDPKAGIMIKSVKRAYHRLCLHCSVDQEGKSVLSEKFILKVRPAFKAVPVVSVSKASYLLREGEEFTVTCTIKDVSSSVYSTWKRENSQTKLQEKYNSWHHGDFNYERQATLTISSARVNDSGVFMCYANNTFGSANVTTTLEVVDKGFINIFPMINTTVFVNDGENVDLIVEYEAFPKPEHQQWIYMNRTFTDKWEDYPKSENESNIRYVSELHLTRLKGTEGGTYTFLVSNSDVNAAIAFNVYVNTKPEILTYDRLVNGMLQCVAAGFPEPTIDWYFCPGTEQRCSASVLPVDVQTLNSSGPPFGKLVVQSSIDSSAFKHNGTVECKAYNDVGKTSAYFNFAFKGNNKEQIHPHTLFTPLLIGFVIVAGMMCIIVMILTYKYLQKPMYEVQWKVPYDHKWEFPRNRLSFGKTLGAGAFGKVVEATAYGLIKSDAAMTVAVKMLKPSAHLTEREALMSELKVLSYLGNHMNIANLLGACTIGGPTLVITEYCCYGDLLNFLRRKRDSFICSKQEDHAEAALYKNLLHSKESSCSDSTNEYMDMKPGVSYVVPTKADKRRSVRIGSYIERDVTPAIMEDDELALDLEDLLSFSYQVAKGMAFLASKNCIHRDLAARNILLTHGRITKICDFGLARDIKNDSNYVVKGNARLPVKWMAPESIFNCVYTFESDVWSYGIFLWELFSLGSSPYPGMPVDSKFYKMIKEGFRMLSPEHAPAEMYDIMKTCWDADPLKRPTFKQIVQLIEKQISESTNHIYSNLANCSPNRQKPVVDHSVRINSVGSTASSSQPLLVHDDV
Experimental: as §1
as §2, with “One” for “Two”, “Ham's F10” for “RPMI1640”

Sequence of Phospho-KIT (Tyr719) in GIST48 cells (P10721 whole entry V560D/D820A, form open): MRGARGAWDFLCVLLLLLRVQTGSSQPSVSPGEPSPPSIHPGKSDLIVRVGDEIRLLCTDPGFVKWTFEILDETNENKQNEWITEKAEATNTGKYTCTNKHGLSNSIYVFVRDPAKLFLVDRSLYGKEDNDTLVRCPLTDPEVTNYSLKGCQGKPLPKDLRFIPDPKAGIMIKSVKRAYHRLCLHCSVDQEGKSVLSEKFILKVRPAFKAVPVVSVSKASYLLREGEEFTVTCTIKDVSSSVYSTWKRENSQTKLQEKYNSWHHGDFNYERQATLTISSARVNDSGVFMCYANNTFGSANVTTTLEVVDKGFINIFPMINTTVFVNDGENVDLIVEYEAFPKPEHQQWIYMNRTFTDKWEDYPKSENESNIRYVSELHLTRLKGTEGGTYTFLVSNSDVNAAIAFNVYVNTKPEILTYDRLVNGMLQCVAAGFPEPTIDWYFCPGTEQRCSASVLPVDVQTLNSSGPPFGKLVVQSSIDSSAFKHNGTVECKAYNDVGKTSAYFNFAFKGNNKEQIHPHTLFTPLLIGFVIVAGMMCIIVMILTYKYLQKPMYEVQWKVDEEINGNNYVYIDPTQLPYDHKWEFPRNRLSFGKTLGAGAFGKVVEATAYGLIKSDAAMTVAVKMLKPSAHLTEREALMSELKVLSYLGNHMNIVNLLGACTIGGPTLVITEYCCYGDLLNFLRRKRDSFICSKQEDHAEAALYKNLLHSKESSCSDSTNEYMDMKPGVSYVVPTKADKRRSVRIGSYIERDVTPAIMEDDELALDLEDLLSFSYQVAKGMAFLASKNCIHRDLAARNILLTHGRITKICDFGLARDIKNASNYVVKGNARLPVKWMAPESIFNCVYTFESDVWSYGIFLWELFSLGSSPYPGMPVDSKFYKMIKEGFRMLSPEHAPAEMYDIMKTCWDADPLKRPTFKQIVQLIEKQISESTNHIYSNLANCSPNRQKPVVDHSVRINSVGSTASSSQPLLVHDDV

| IC50 [1] [nM] | IC50 [2] [nM] | Structure (SMILES) |
| --- | --- | --- |
| 10 to 100 | < 10 | CCn1c(=O)c(-c2cc(NC(=O)Nc3cccc4ccccc34)c(F)cc2C)cc2cnc(NC)cc21 [Example 1, 1-(5-(1-ethyl-7-(methylamino)-2-oxo-1,2-dihydro-1,6-naphthyridin-3-yl)-2-fluoro-4-methylphenyl)-3-(naphthalen-1-yl)urea] |
| 10 to 100 | 10 to 100 | CCn1c(=O)c(-c2cc(NC(=O)Nc3cccc(F)c3F)c(F)cc2Cl)cc2cnc(NC)cc21 [Example 4, 1-(4-chloro-5-(1-ethyl-7-(methylamino)-2-oxo-1,2-dihydro-1,6-naphthyridin-3-yl)-2-fluorophenyl)-3-(2,3-difluorophenyl)urea] |
| < 10 | < 10 | CCn1c(=O)c(-c2cc(NC(=O)Nc3cccc4ccccc34)c(F)cc2Cl)cc2cnc(NC)cc21 [Example 6, 1-(4-chloro-5-(1-ethyl-7-(methylamino)-2-oxo-1,2-dihydro-1,6-naphthyridin-3-yl)-2-fluorophenyl)-3-(naphthalen-1-yl)urea] |
| < 10 | 10 to 100 | CNc1cc2c(cn1)cc(-c1cc(NC(=O)Nc3csc4ccccc34)c(F)cc1F)c(=O)n2C [Example 14, 1-(benzo[b]thiophen-3-yl)-3-(2,4-difluoro-5-(1-methyl-7-(methylamino)-2-oxo-1,2-dihydro-1,6-naphthyridin-3-yl)phenyl)urea] |
| 10 to 100 | 10 to 100 | CCn1c(=O)c(-c2cc(NC(=O)Nc3cccc(F)c3)c(F)cc2F)cc2cnc(NC)cc21 [Example 15, 1-(5-(1-ethyl-7-(methylamino)-2-oxo-1,2-dihydro-1,6-naphthyridin-3-yl)-2,4-difluorophenyl)-3-(3-fluorophenyl)urea] |
| 100 to 1000 | 100 to 1000 | CCn1c(=O)c(-c2cc(NC(=O)Nc3ccccc3)c(F)cc2F)cc2cnc(NC)cc21 [Example 16, 1-(5-(1-ethyl-7-(methylamino)-2-oxo-1,2-dihydro-1,6-naphthyridin-3-yl)-2,4-difluorophenyl)-3-phenylurea] |
| 100 to 1000 | 10 to 100 | CCn1c(=O)c(-c2cc(NC(=O)Nc3cccc(F)c3)c(F)cc2Cl)cc2cnc(N)cc21 [Example 20, 1-(5-(7-amino-1-ethyl-2-oxo-1,2-dihydro-1,6-naphthyridin-3-yl)-4-chloro-2-fluorophenyl)-3-(3-fluorophenyl)urea] |
| 10 to 100 | 10 to 100 | CNc1cc2c(cn1)cc(-c1cc(NC(=O)Nc3ccccc3)c(F)cc1Cl)c(=O)n2C(C)C [Example 22, 1-(4-chloro-2-fluoro-5-(1-isopropyl-7-(methylamino)-2-oxo-1,2-dihydro-1,6-naphthyridin-3-yl)phenyl)-3-phenylurea] |
| 10 to 100 | < 10 | CCn1c(=O)c(-c2cc(NC(=O)Nc3cccc(F)c3)c(F)cc2Cl)cc2cnc(NC)cc21 [Example 24, 1-[4-chloro-5-(1-ethyl-7-methylamino-2-oxo-1,2-dihydro-[1,6]naphthyridin-3-yl)-2-fluoro-phenyl]-3-(3-fluoro-phenyl)-urea] |
| 10 to 100 | 10 to 100 | CCn1c(=O)c(-c2cc(NC(=O)Nc3ccccc3F)c(F)cc2Cl)cc2cnc(NC)cc21 [Example 25, 1-[4-chloro-5-(1-ethyl-7-methylamino-2-oxo-1,2-dihydro-[1,6]naphthyridin-3-yl)-2-fluoro-phenyl]-3-(2-fluoro-phenyl)-urea] |
| 10 to 100 | 10 to 100 | CCn1c(=O)c(-c2cc(NC(=O)Nc3ccccc3)c(F)cc2Cl)cc2cnc(NCCOC)cc21 [Example 27, 1-(4-chloro-5-(1-ethyl-7-(2-methoxyethylamino)-2-oxo-1,2-dihydro-1,6-naphthyridin-3-yl)-2-fluorophenyl)-3-phenylurea] |
| 100 to 1000 | 10 to 100 | CCn1c(=O)c(-c2cc(NC(=O)Nc3cccc(F)c3)c(F)cc2Cl)cc2cnc(NCCOC)cc21 [Example 28, 1-(4-chloro-5-(1-ethyl-7-(2-methoxyethylamino)-2-oxo-1,2-dihydro-1,6-naphthyridin-3-yl)-2-fluorophenyl)-3-(3-fluorophenyl)urea] |
| < 10 | < 10 | CCn1c(=O)c(-c2cc(NC(=O)Nc3csc4ccccc34)c(F)cc2Cl)cc2cnc(NC)cc21 [Example 32] |
| – | 10 to 100 | CCn1c(=O)c(-c2cc(NC(=O)Nc3ccccc3)ccc2Cl)cc2cnc(NC)cc21 [Example 33, 1-(4-chloro-3-(1-ethyl-7-(methylamino)-2-oxo-1,2-dihydro-1,6-naphthyridin-3-yl)phenyl)-3-phenylurea] |
| 100 to 1000 | 100 to 1000 | CCn1c(=O)c(-c2cc(NC(=O)Nc3ccccc3)c(F)cc2F)cc2cnc(NCCOC)cc21 [Example 36, 1-(5-(1-ethyl-7-(2-methoxyethylamino)-2-oxo-1,2-dihydro-1,6-naphthyridin-3-yl)-2,4-difluorophenyl)-3-phenylurea] |
| 100 to 1000 | 10 to 100 | CNc1cc2c(cn1)cc(-c1cc(NC(=O)Nc3cccc(F)c3)c(F)cc1C)c(=O)n2C(C)C [Example 41, 1-(2-fluoro-5-(1-isopropyl-7-(methylamino)-2-oxo-1,2-dihydro-1,6-naphthyridin-3-yl)-4-methylphenyl)-3-(3-fluorophenyl)urea] |
| 10 to 100 | < 10 | CCn1c(=O)c(-c2cc(NC(=O)Nc3cccc(F)c3)c(F)cc2C)cc2cnc(NC)cc21 [Example 44, 1-(5-(1-ethyl-7-(methylamino)-2-oxo-1,2-dihydro-1,6-naphthyridin-3-yl)-2-fluoro-4-methylphenyl)-3-(3-fluorophenyl)urea] |
| 100 to 1000 | < 10 | CCn1c(=O)c(-c2cc(NC(=O)Nc3cccc(F)c3)c(F)cc2Br)cc2cnc(NC)cc21 [Example 50, 1-(4-bromo-5-(1-ethyl-7-(methylamino)-2-oxo-1,2-dihydro-1,6-naphthyridin-3-yl)-2-fluorophenyl)-3-(3-fluorophenyl)urea] |
| 100 to 1000 | 10 to 100 | CCn1c(=O)c(-c2cc(NC(=O)Nc3ccccc3)c(F)cc2Br)cc2cnc(NCCOC)cc21 [Example 51, 1-(4-bromo-5-(1-ethyl-7-(2-methoxyethylamino)-2-oxo-1,2-dihydro-1,6-naphthyridin-3-yl)-2-fluorophenyl)-3-phenylurea] |
| 10 to 100 | 10 to 100 | CCn1c(=O)c(-c2cc(NC(=O)Nc3ccccc3)c(F)cc2Cl)cc2cnc(NC(C)=O)cc21 [Example 54, 1-(5-(7-acetamido-1-ethyl-2-oxo-1,2-dihydro-1,6-naphthyridin-3-yl)-4-chloro-2-fluorophenyl)-3-phenylurea] |
| > 1000 | 10 to 100 | CCn1c(=O)c(-c2cc(NC(=O)Nc3cc(F)cc(F)c3)c(F)cc2Cl)cc2cnc(NC)cc21 [Example 55, 1-(4-chloro-5-(1-ethyl-7-(methylamino)-2-oxo-1,2-dihydro-1,6-naphthyridin-3-yl)-2-fluorophenyl)-3-(3,5-difluorophenyl)urea] |
| 100 to 1000 | 10 to 100 | CCn1c(=O)c(-c2cc(NC(=O)Nc3ccccc3)c(F)cc2Br)cc2cnc(N)cc21 [Example 57, 1-(5-(7-amino-1-ethyl-2-oxo-1,2-dihydro-1,6-naphthyridin-3-yl)-4-bromo-2-fluorophenyl)-3-phenylurea] |
| 100 to 1000 | 10 to 100 | CCn1c(=O)c(-c2cc(NC(=O)Nc3cccc(F)c3)c(F)cc2C)cc2cnc(N)cc21 [Example 58, 1-(5-(7-amino-1-ethyl-2-oxo-1,2-dihydro-1,6-naphthyridin-3-yl)-2-fluoro-4-methylphenyl)-3-(3-fluorophenyl)urea] |
| < 10 | – | CCn1c(=O)c(-c2cc(NC(=O)Nc3ccccc3)c(F)cc2C)cc2cnc(NC(=O)N3CCC3)cc21 [Example 110, N-(1-ethyl-3-(4-fluoro-2-methyl-5-(3-phenylureido)phenyl)-2-oxo-1,2-dihydro-1,6-naphthyridin-7-yl)azetidine-1-carboxamide] |
